For twelve compounds, IC50 and melting point results are on record in patent US20070191335A1, “Heterocylic antiviral compounds” (priority 2006, published 2007).

Structures can show the parent of a compound that is named as a salt.

The target in the first series is T1, CCR5 (Homo sapiens, UniProt P51681).
T1 construct: host or cells: CEM-NKr-CCR5-Luc
T1 sequence (P51681 whole entry): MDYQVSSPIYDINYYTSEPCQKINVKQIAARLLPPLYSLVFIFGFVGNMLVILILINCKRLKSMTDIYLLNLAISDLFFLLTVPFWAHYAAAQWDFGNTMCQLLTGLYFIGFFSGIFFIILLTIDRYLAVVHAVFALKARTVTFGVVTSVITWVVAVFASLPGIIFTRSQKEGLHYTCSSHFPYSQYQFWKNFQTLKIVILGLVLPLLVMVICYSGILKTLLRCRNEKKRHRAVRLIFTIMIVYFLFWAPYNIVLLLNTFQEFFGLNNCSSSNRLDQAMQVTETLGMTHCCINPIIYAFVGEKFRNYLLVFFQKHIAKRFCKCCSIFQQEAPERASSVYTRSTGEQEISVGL
Put plainly: CCR5-Mediated CCF Assay. It counts as cell-based. Conditions: Hela-R5 cells (gp160) co-cultured 24 hrs with CEM-NKr-CCR5-Luc cells, luciferase readout. The method, then:
CCF assay was performed as described before (C. Ji, J. Zhang, N. Cammack and S. Sankuratri 2006 J. Biomol. Screen. in press). Hela-R5 cells (express gp160 from R5-tropic virus and HIV-1 T at) were plated in 384 well white culture plates (BD Bioscience, Palo Alto, Calif.) at 7.5×10^3 cells per well in phenol red-free Dulbecco's Modified Eagle Medium (DMEM) supplemented with 10% FBS, 1× Pen-Strep, 300 μg/ml G418, 100 μg/ml hygromycin, and 1 μg/ml doxycycline (Dox) (BD Bioscience, Palo Alto, Calif.), using Multimek (Beckman, Fullerton, Calif.) and incubated at 37° C. overnight to induce the expression of gp160. Ten μl diluted compounds in medium containing 5% DMSO were added to the cells, followed by the addition of CEM-NKr-CCR5-Luc (obtained from NIH AIDS Research & Reference Reagents Program) that expresses CD4 and CCR5 and carries a HIV-2 long terminal repeat (LTR)-driven luciferase reporter gene at 1.5×10^4 cells/15 μl/well and incubated for 24 hrs. At the end of co-culture, 15 μl of Steady-Glo luciferase substrate was added into each well, and the cultures were sealed and gently shaken for 45 min. The luciferase activity were measured for 10 sec per well as luminescence by using 16-channel TopCount NXT (PerkinElmer, Shelton, Conn.) with 10 min dark adaptation and the readout is count per second (CPS). For the drug interaction experiments, small molecule compounds or antibodies were serially diluted in serum-free and phenol red-free RPMI containing 5% dimethyl sulfoxide (DMSO) (CalBiochem, La Jolla, Calif.) and 1× Pen-Strep. Five μl each of the two diluted compound or mAb to be tested for drug-drug interactions were added to the Hela-R5 cells right before the addition of target cells.
Compound `Cc1nc(OCC(=O)OCc2ccccc2)nc(C)c1C(=O)N1CC2CN(CC[C@H](NC(=O)C3CCCC3)c3ccccc3)CC2C1` (stereo partly drawn) [Compound I-3, (5-{5-[(S)-3-(Cyclopentanecarbonyl-amino)-3-phenyl-propyl]-hexahydro-pyrrolo[3,4-c]pyrrole-2-carbonyl}-4,6-dimethyl-pyrimidin-2-yloxy)-acetic Acid Benzyl Ester] showed an IC50 of 0.5 nM. Compound `Cc1nc(Oc2ccc(C(=O)OCc3ccccc3)cc2)nc(C)c1C(=O)N1CC2CN(CC[C@H](NC(=O)C3CCCC3)c3ccccc3)CC2C1` (stereo partly drawn) [Compound I-7, 4-(5-{5-[(S)-3-(Cyclopentanecarbonyl-amino)-3-phenyl-propyl]-hexahydro-pyrrolo[3,4-c]pyrrole-2-carbonyl}-4,6-dimethyl-pyrimidin-2-yloxy)-benzoic acid benzyl ester] came in with an IC50 of less than 0.3 nM. For the compound `Cc1nc(Oc2ccc(C(=O)O)cc2)nc(C)c1C(=O)N1CC2CN(CC[C@H](NC(=O)C3CCCC3)c3ccccc3)CC2C1` (stereo partly drawn) [Compound I-8, 4-(5-{5-[(S)-3-(cyclopentanecarbonyl-amino)-3-phenyl-propyl]-hexahydro-pyrrolo[3,4-c]pyrrole-2-carbonyl}-4,6-dimethyl-pyrimidin-2-yloxy)-benzoic acid trifluoro-acetate salt], the IC50 amounted to 0.9 nM.

Compound `CCOC(=O)c1cccc(Oc2nc(C)c(C(=O)N3CC4CN(CC[C@H](NC(=O)C5CCCC5)c5ccccc5)CC4C3)c(C)n2)c1` (stereo partly drawn) [Compound I-9, 3-(5-{5-[(S)-3-(Cyclopentanecarbonyl-amino)-3-phenyl-propyl]-hexahydro-pyrrolo[3,4-c]pyrrole-2-carbonyl}-4,6-dimethyl-pyrimidin-2-yloxy)-benzoic acid ethyl ester] yielded a half-maximal inhibitory concentration (IC50) of less than 0.3 nM. Still for that read-out and setting: under `Cc1nc(Oc2cccc(C(=O)O)c2)nc(C)c1C(=O)N1CC2CN(CC[C@H](NC(=O)C3CCCC3)c3ccccc3)CC2C1` (stereo partly drawn) [Compound I-10, 3-(5-{5-[(S)-3-(cyclopentanecarbonyl-amino)-3-phenyl-propyl]-hexahydro-pyrrolo[3,4-c]pyrrole-2-carbonyl}-4,6-dimethyl-pyrimidin-2-yloxy)-benzoic acid, trifluoro acetic acid salt] stands 1.1 nM; under `COC(=O)[C@@H](Oc1nc(C)c(C(=O)N2CC3CN(CC[C@H](NC(=O)C4CCCC4)c4ccccc4)CC3C2)c(C)n1)c1ccccc1` (stereo partly drawn) [Compound I-16, (S)-(5-{-5-[(S)-3-(Cyclopentanecarbonyl-amino)-3-phenyl-propyl]-hexahydro-pyrrolo[3,4-c]pyrrole-2-carbonyl}-4,6-dimethyl-pyrimidin-2-yloxy)-phenyl-acetic acid methyl ester], 1 nM. Turning to `COc1nc(C)c(C(=O)N2CC3CN(CC[C@H](NC(=O)C4CCCC4)c4ccccc4)CC3C2)c(C)n1` (stereo partly drawn) [Compound I-19, Cyclopentanecarboxylic Acid {(S)-3-[5-(2-methoxy-4,6-dimethyl-pyrimidine-5-carbonyl)-hexahydro-pyrrolo[3,4-c]pyrrol-2-yl]-1-phenyl-propyl}-amide], the IC50 amounted to 0.4 nM.

`Cc1nc(NS(C)(=O)=O)nc(C)c1C(=O)N1CC2CN(CC[C@H](NC(=O)C3CCCC3)c3ccccc3)CC2C1` (stereo partly drawn) [Compound I-42, Cyclopentanecarboxylic Acid {(S)-3-[5-(2-methanesulfonylamino-4,6-dimethyl-pyrimidine-5-carbonyl)-hexahydro-pyrrolo[3,4-c]pyrrol-2-yl]-1-phenyl-propyl}-amide] displayed an IC50 of less than 0.3 nM. The same measure, in the same setting: under `Cc1nn(-c2ccc(C(F)(F)F)cn2)c(C)c1C(=O)N1CC2CN(CC[C@H](NC(=O)C3CCOC3)c3cccc(F)c3)CC2C1` (stereo partly drawn) [II-3, Tetrahydro-furan-3-carboxylic acid [(S)-3-{5-[3,5-dimethyl-1-(5-trifluoromethyl-pyridin-2-yl)-1H-pyrazole-4-carbonyl]-hexahydro-pyrrolo[3,4-c]pyrrol-2-yl}-1-(3-fluoro-phenyl)-propyl]-amide] stands less than 0.3 nM; under `Cc1cc(=O)n(C)c(C)c1C(=O)N1CC2CN(CC[C@H](NC(=O)C3CCCC3)c3ccccc3)CC2C1` (stereo partly drawn) [III-13, Cyclopentanecarboxylic acid {(S)-1-phenyl-3-[-5-(1,2,4-trimethyl-6-oxo-1,6-dihydro-pyridine-3-carbonyl)-hexahydro-pyrrolo[3,4-c]pyrrol-2-yl]-propyl}-amide], 1.4 nM; under `Cc1cc(=O)n(C)c(C)c1C(=O)N1CC2CN(CC[C@H](NC(=O)C3CCC(F)(F)CC3)c3ccccc3)CC2C1` (stereo partly drawn) [III-15, 4,4-difluoro-cyclohexanecarboxylic acid {(S)-1-phenyl-3-[5-(1,2,4-trimethyl-6-oxo-1,6-dihydro-pyridine-3-carbonyl)-hexahydro-pyrrolo[3,4-c]pyrrol-2-yl]-propyl}-amide], 1.1 nM.

Tested on in the next series: not given
Assay: not given
Details: not given
The compound `CCOC(=O)Cn1c(C)c(C(=O)N2CC3CN(CCCN(C(=O)C4CCN(C(C)=O)CC4)c4ccc(C)c(Cl)c4)CC3C2)c(C)cc1=O` (stereo not drawn) [III-1, [5-(5-{3-[(1-Acetyl-piperidine-4-carbonyl)-(3-chloro-4-methyl-phenyl)-amino]-propyl}-hexahydro-pyrrolo[3,4-c]pyrrole-2-carbonyl)-4,6-dimethyl-2-oxo-2H-pyridin-1-yl]-acetic acid ethyl ester] registered a melting point of 88.2 to 89.1 °C.

The IC50 is the concentration that gives 50% inhibition. For orientation: melting point means the temperature, or range, at which the solid turns liquid.
